{
  "source": "paper PMC13252604",
  "about": "“First Generation Proteolysis Targeting Chimeras (PROTACs) for the Treatment of Progeria” (Advanced Science, 2026)",
  "tested_on": "HGADFN167 Lmna^G608G/G608G fibroblasts",
  "experiment": "Transmission electron microscopy of mitochondria",
  "format": "cell-based, human",
  "conditions": "HGADFN167, 5 µM, 20 days",
  "description": "Supporting Figure S6. Basal respiration and electronic microscopy analysis of mitochondria in wild type and HGPS cells. (A) PROTAC 2 increases basal respiration (OCR, oxygen consumption rate) in human progeroid cells. Bar graphs show mean±sem of 2 independent experiments performed in duplicate. HGADFN167 LmnaG608G/G608G (progeroid) and HGADFN168 Lmna+/+ (wild type) fibroblasts, provided by the Progeria Research Foundation, were incubated with vehicle or 2 (5 µM) for 20 days. *, p<0.05 vs G608G cells, one-way ANOVA. […]\nMitochondria were evaluated for the integrity of the membrane, matrix and cristae, and were classified as mitochondria with normal morphology (black arrows) or damaged mitochondria (red arrows, with alterations in the membrane, presence of inclusions in the matrix and concentric cristae or “onion-like” mitochondria). […]\nCells were harvested by trypsin, centrifuged and washed with PBS. […] The mixture was then allowed to incubate for 30min at 37 °C in the dark and samples were finally analysed by FACScalibur (Becton Dickinson) flow cytometer […]\nCells were incubated for 1 h in 1% OsO4 at room temperature and then thoroughly washed with milliQ water. […] The samples were analysed and examined in the transmission electron microscope JEM 1010 at 80 […]",
  "data": [
    {"smiles": "CC1(C)Oc2cc3oc(=O)ccc3cc2C[C@@H]1OC(=O)CCCCCNc1cccc2c1C(=O)N(C1CCC(=O)NC1=O)C2=O", "note": "(stereo partly shown) [compound 2]", "values": [
      {"measurement": "number of healthy mitochondria (electron microscopy)", "value": "enhances"}
    ]}
  ]
}
